The molecules below were run on Plasmodium falciparum (assay: MMV: IC50 determined against P. falciparum Dd2-luc strain using a Malaria Sybr Green I Fluorescence assay. Starting conditions were 1% trophozoite synchronised parasites at 2% haematocrit. Fluorescence detection completed after 48hr incubation at 37 degrees C under 1% O2, 3% CO2 and balance N2.). Settings: Dd2, 48 h.
Type: functional, organism-based

Compound | IC50 [nM]
O=C(Nc1ccc(Cl)c(Cl)c1)Nc1ccc(Cl)c(Cl)c1 | 3880
COc1ccc(-c2cc3c(nn2)-c2ccccc2C3=O)cc1 | 731
COc1ccc(-c2c(C)nn3c(N)c(C#N)cnc23)cc1OC | 305
COc1ccc2c(c1)C1(Nc3ccccc3-c3nc4ccccc4n31)C(=O)N2 (stereo not given) | 239
COc1cccc(Cn2c(Oc3ccccc3)nc3c2c(=O)n(C)c(=O)n3C)c1 | 1150
OC(CNCC1CCCO1)Cn1c2ccc(Cl)cc2c2cc(Cl)ccc21 (stereo not given) | 734
CCN(CC)CCNc1ncnc2c1[nH]c1ccc(Cl)cc12 | 373
CN1CCN(c2ncnc3c2[nH]c2ccc(Cl)cc23)CC1 | 1180
CC1(c2ccccc2)Nc2ccccc2-c2nc3ccccc3n21 (stereo not given) | 263
COc1ccc(CCN2C(=O)c3[nH]nc(-c4cc(Cl)c(C)cc4O)c3C2c2ccccc2F)cc1 (stereo not given) | 3190
COc1cccc(C2(C)Nc3ccccc3-c3nc4ccccc4n32)c1 (stereo not given) | 1410
CC(C)CNC(=O)c1c(N)n(CCc2ccccc2F)c2nc3ccccc3nc12 | 680
CC(C)(C)CC(C)(C)NCC(O)COc1ccc(Cl)cc1Cl (stereo not given) | 494
Cc1cccc(-n2ncc3c(O)nc(-n4nc(C)cc4NC(=O)c4cc5ccccc5o4)nc32)c1 | 994
O=C(Nc1ccccc1O)c1ccc(Oc2cccc(C(=O)Nc3ccccc3O)c2)cc1 | 202
Cc1ccc(-c2cc3c(nn2)-c2ccccc2C3=O)cc1 | 1260
Oc1ccccc1CN1CCC2(CCCN(Cc3ccccc3F)C2)C1 (stereo not given) | 647
N=c1n(CCN2CCCCC2)c2ccccc2n1CC(O)c1cccc(Br)c1 (stereo not given) | 1110
COc1cccc(O)c1CN1CCC2(CCCN(Cc3ccc(F)cc3)C2)C1 (stereo not given) | 502
CCOC(=O)C1=C(C)N=c2sc(=Cc3ccccc3O)c(=O)n2C1c1ccc(OC)c2ccccc12 (stereo not given) | 1520
Cc1ccc(-c2cc(C(=O)Nc3ccc(S(=O)(=O)N4CCCCC4)cc3)[nH]n2)c(O)c1 | 2350
CCOC(=O)C1=C(C)N=c2sc(=Cc3cc(Cl)ccc3O)c(=O)n2C1c1ccc(OC)cc1 (stereo not given) | 527
COc1ccc(-c2nc(NC(=O)CS(=O)(=O)c3ccc(F)cc3)sc2C)cc1 | 515

Compound | IC50 [nM]
FC(F)(F)c1cccc(Nc2nc3ccccc3nc2Nc2cccc(C(F)(F)F)c2)c1 | 739
FC(F)(F)c1ccc(Nc2nnnc3ccccc23)cc1 | 3990
c1ccc(-c2ccc(-c3nc4ccccc4[nH]3)cc2)cc1 | 2000
CCC(C)NCC(O)(c1ccc(Cl)cc1)c1ccc(Cl)cc1 (stereo not given) | 551
COc1ccc(CN2CCCC(C(=O)c3ccc(C(F)(F)F)cc3)C2)c(O)c1 (stereo not given) | 635
COc1cccc(NC(=O)[C@H](C(C)C)n2c(=O)[nH]c3ccccc3c2=O)c1 | 158
O=c1nc(C=Cc2ccc(Br)cc2)oc2ccccc12 | 5930
COc1ccc2nc(N)nc(C)c2c1 | 1870
COc1cccc(NC(=O)Cn2c(C)c(C#N)c3ccccc32)c1 | 1270
CCC(c1ccccc1)c1nn2c(-c3cccs3)nnc2s1 (stereo not given) | 338
CC(=O)c1ccc(NC(=O)CSc2nc(-c3ccccc3Cl)ns2)cc1 | 1690
CC(C)(C)c1ccc(O)c(CNC2CCCCC2)c1 | 181
O=[N+]([O-])c1ccc(C=NNc2nc3ccccc3[nH]2)cc1 | 242
COc1ccc(CCN2CCC(CN(C)Cc3cnn(-c4ccccc4)c3)CC2)cc1 | 2680
O=C(NC(c1ccccc1)c1ccc2cccnc2c1O)c1ccccc1 (stereo not given) | 426
COCCNC(=O)c1ccc(OC2CCN(Cc3ccc(F)c(F)c3)CC2)c(Cl)c1 | 754
CCCCNc1nc(NC(C)(C)C)nc(NC(C)(C)C)n1 | 893
COc1ccc(CNC(=O)c2cc3c(=O)n4ccccc4nc3n(CCc3ccccc3)c2=N)cc1 | 1230
CCOC(=O)c1c(NC(=O)c2ccccc2)sc2c(O)c(CN(CC)CC)ccc12 | 127
O=C(NC1CCCC1)c1ccc(N2CCC(NCc3cccc(C(F)(F)F)c3)CC2)cc1 | 468
CCOc1cc(Br)c(C(C)NC(=O)c2cccc(OC)c2)cc1OCC (stereo not given) | 1440
CC(C)=CCN1CCC(C(=O)Nc2ccc(-c3nc4ccccc4[nH]3)cc2)CC1 | 1240
CCOc1cc(Cl)c(C(C)NC(=O)c2cccc(OC)c2)cc1OCC (stereo not given) | 649

Compound | IC50 [nM]
O=C(CCc1ccco1)NC1CCN(CC2(c3ccc(Cl)cc3)CCC2)CC1 | 1030
Cc1cc(Nc2ccc(C)c(Cl)c2)n2nc(C(F)(F)F)nc2n1 | 1240
FC(F)(F)c1cccc(Nc2nc(-c3ccccc3)nc3ncccc23)c1 | 885
Nc1ccc(-c2nc3cc(Cc4ccc5[nH]c(-c6ccc(N)cc6)nc5c4)ccc3[nH]2)cc1 | 1820
CC(=O)c1sc(NC(=O)Nc2ccc(C)cc2C)nc1C | 1970
Cn1c(=O)n(C)c2cc(CNCCNc3ccnc4cc(Cl)ccc34)ccc21 | 197
COc1ccc(CNC2CCN(c3ccc(NC(=O)c4cccc(Cl)c4)cc3)CC2)cc1OC | 1190
COCCN(C(=O)Cc1cccs1)C(C(=O)NCc1ccc(OC)cc1)c1ccc(C(C)C)cc1 (stereo not given) | 975
CC(NCc1ccccc1)c1cc(Cl)ccc1O (stereo not given) | 498
O=c1cc(NC2CCN(CCCc3ccccc3)CC2)c2cc(Cl)ccc2o1 | 543
Cc1ccc(OCCCCCCNCCO)c(C)c1 | 2480
FC(F)(F)c1cccc(CNC2CCN(CCc3ccccc3)CC2)c1 | 490
Oc1ccc(Cl)cc1CNc1nc2ccccc2[nH]1 | 1000
CCOc1cc(Cl)c(C(C)NC(=O)c2ccccc2)cc1OCC (stereo not given) | 828
C=CC12CCN(CC1)C(C(O)c1ccnc3ccc(OC)cc13)C2 (stereo not given) | 418
O=C(c1ccccc1F)N(Cc1ccc(Cl)cc1)c1ccccn1 | 1190
COCCn1c(C)nc2ccccc2c1=O | 930
O=C(Nc1cccc(-c2nc3ccccc3[nH]2)c1)c1cccc(NC(=O)c2ccco2)c1 | 506
COc1ccc(C(=O)Nc2ccc(Cl)cc2C(=O)Nc2ccncc2)cc1 | 810
O=C(Nc1ccc(CN2CCOCC2)cc1)c1ccc(-c2ccc(Br)cc2)o1 | 958
COc1ccccc1CNC(=O)CCn1c(=O)[nH]c2ccccc2c1=O | 518
OC(Cn1nnc2ccccc21)Cn1c2ccc(Br)cc2c2cc(Br)ccc21 (stereo not given) | 2030
O=C(Nc1ccc(Cl)cc1)N1CCN(c2ccc3nncn3n2)CC1 | 1040

Compound | IC50 [nM]
CN(C)c1ccc(-c2nc3cc(N)ccc3[nH]2)cc1 | 1240
Cc1ccc2cc3c(N)c4c(C)ccc(C)c4nc3nc2c1 | 1440
COc1ccccc1C(=O)ON=C(N)Cc1cccc2ccccc12 | 4020
O=C(CSc1ccc2nnc(-c3cccc(F)c3)n2n1)Nc1ccc2c(c1)OCO2 | 541
CCCCNCC(O)(c1ccc(Cl)cc1)c1ccc(Cl)cc1 | 420
CCCC(c1nnnn1C1CCCCC1)N1CCN(C(=O)c2ccco2)CC1 (stereo not given) | 518
COc1cc(C(=O)ON=C(N)Cc2cccc3ccccc23)cc(OC)c1OC | 3940
CCCc1cc(O)c2c3c(c(=O)oc2c1)CN(C)CC3 | 2570
CC(C)(C)C(=O)Nc1ccc(C(=O)Nc2cccc(-c3nc4ccccc4[nH]3)c2)cc1 | 753
COc1ccc(-c2nonc2NC(=O)c2cccc(C)c2)cc1OC | 904
Cc1ccc(CN2CCC(C(=O)Nc3ccc(-c4cc5ccccc5[nH]4)cc3)CC2)o1 | 459
OC(CNC1CCCCC1)Cn1c2ccc(I)cc2c2cc(I)ccc21 (stereo not given) | 436
CCn1c(SCC(=O)Nc2cc(C(F)(F)F)ccc2Cl)nc2ccccc2c1=O | 903
O=C(Nc1ccsc1C(=O)NC1CCCCC1)c1ccc(F)cc1 | 1040
O=C(Nc1ccc(Cl)cc1C(=O)Nc1ccncc1)c1ccc(Cl)cc1Cl | 866
O=C(Nc1cccc(C(F)(F)F)c1)c1cc(Cl)ccc1O | 1090
CCc1ccc(CNCC(O)c2ccccc2)cc1 (stereo not given) | 1870
CCOc1ccc(-c2nonc2NC(=O)c2cccc(C)c2)cc1OCC | 154
COc1ccc(C2N(C)c3ccccc3N2C)cc1 | 1100
COc1cccc(C(=O)NC(c2ccc(C)cc2)c2cc(Cl)c3cccnc3c2O)c1 (stereo not given) | 940
COc1ccc2c(=O)cc(C(Cl)(Cl)Cl)oc2c1 | 958
CC(C)(C)CC(C)(C)NCC(O)COc1ccc2c(c1)CCC2 (stereo not given) | 1760
CCOc1ccc(/C=C/c2nc(=O)c3ccccc3o2)cc1 | 740

Compound | IC50 [nM]
O=C(Nc1ccccc1O)c1ccc(-c2ccc(Cl)cc2Cl)o1 | 2990
O=C(Nc1nc(-c2ccccn2)cs1)c1ccccc1Br | 1610
O=C(Nc1ccc(F)c(Cl)c1)Nc1ccc(Cl)c(Cl)c1 | 1830
CCOC(=O)C1(Cc2ccccc2)CCN(Cc2cccc(OC)c2O)CC1 | 2200
Oc1ccc(C(=C(Cl)Cl)c2ccc(O)cc2)cc1 | 1910
CCOc1ccc(-c2nc(NC(=O)c3cccc(S(C)(=O)=O)c3)sc2C)cc1 | 1440
COc1ccc(C(=O)NC(c2ccccc2Cl)c2cc(Cl)c3cccnc3c2O)cc1 (stereo not given) | 978
COc1ccc(CN2CCN(Cc3ccccc3)CC2)c(O)c1 | 1140
CCCCCCc1cc(O)c2c3c(c(=O)oc2c1)CCC(C)C3 (stereo not given) | 568
COc1ccccc1N1CCN(C(CNS(=O)(=O)c2ccc(Cl)cc2)c2cccnc2)CC1 (stereo not given) | 913
Oc1ccc(Br)cc1CN1CCN(Cc2ccc(Cl)cc2)CC1 | 1520
CCCc1c(C)nc2ccccc2c1O | 637
CC1=C(CC(=O)c2cccc([N+](=O)[O-])c2)C(=O)c2ccccc2C1=O | 129
CCCCCCc1cc2cc(-c3nc4ccccc4[nH]3)c(=Nc3ccccc3C)oc2cc1O | 5720
CCOc1c(Cl)cc(CNC(C)C(O)c2ccccc2)cc1OC (stereo not given) | 1360
COc1ccc(C(=O)C2CC2c2ccc(Cl)cc2)cc1 (stereo not given) | 3290
CCN(CC)CCCNc1nc(-c2ccc(Cl)cc2)nc2ccccc12 | 425
O=c1c2c([nH]c3ccccc13)CCCC2 | 876
CN1c2ccccc2N(C)C1c1ccc2c(c1)OCO2 | 1150
CC1CC2=C(CC1CNCCCN(C)C)C(C)(C)CCC2 (stereo not given) | 476
O=C(NCC1Cc2cccc(-c3ccncc3)c2O1)c1csc2c1CCCC2 (stereo not given) | 1690
Cc1c(C)n(CC(O)CNC2CCCCC2C)c2ccccc12 (stereo not given) | 484
C=C(C)CCC(C)N1CCC(N2CCC(C(=O)NCCc3ccccc3)CC2)CC1 (stereo not given) | 1460

Source: ChEMBL document CHEMBL3392922, “MMV box screening in the Dd2 P. falciparum strain”
